The source made the active and inactive calls. No cut-off for these calls is given here.
Key:
[1] = test system: Bel7402/5-FU; test: Induction of apoptosis in human Bel7402/5-FU cells assessed as late apoptotic cells at 2 uM after 48 hrs by Annexin V-APC/7-AAD staining based flow cytometry (reference value: 3%); format: functional
[2] = test system: Bel7402/5-FU; test: Induction of apoptosis in human Bel7402/5-FU cells assessed as live cells at 2 uM after 48 hrs by Annexin V-APC/7-AAD staining based flow cytometry (reference value: 91.08%); format: functional
[3] = Resistant factor, ratio of IC50 for human Bel7402/5-FU cells to IC50 for human Bel7402 cells; format: functional
[4] = test system: Bel7402/5-FU; test: Induction of apoptosis in human Bel7402/5-FU cells assessed as early apoptotic cells at 2 uM after 48 hrs by Annexin V-APC/7-AAD staining based flow cytometry (reference value: 5.24%); format: functional
[5] = test system: Bel7402/5-FU; test: Cell cycle arrest in human Bel7402/5-FU cells assessed as accumulation at G1 phase at 2 uM after 48 hrs by propidium iodide staining based flow cytometry (reference value: 52.21%); format: functional
[6] = test system: Bel7402/5-FU; test: Induction of apoptosis in human Bel7402/5-FU cells assessed as ratio of cleaved caspase-8 to beta-actin level at 2 uM after 48 hrs by Western blot analysis (reference value: 0.17); format: functional
[7] = biological target: Signal transducer and activator of transcription 3 (Homo sapiens) (UniProt P40763); test: Effect on STAT3 phosphorylation in human Bel7402/5-FU cells assessed as ratio of phosphorylated STAT3 to beta-actin level at 2 uM after 48 hrs by Western blot analysis (reference value: 0.3); format: cell-based
[8] = test system: L02; test: Antiproliferative activity against human LO2 cells after 72 hrs by CCK-8 assay; format: cell-based; conditions: L02, 72 h
[9] = test system: Bel7402/5-FU; test: Antimigratory activity in human Bel7402/5-FU cells at 2 uM after 24 hrs by wound healing assay; format: functional, cell-based
[10] = test system: Bel7402/5-FU; test: Antiproliferative activity against human Bel7402/5-FU cells after 72 hrs by CCK-8 assay; format: functional, cell-based
[11] = test system: Bel-7402; test: Antiproliferative activity against human Bel7402 cells after 72 hrs by CCK-8 assay; format: functional, cell-based; conditions: Bel-7402, 72 h
[12] = test system: Bel7402/5-FU; test: Induction of microtubule disruption in human Bel7402/5-FU cells at 2 uM after 24 to 48 hrs by DAPI staining based immunofluorescence microscopic method; format: functional, cell-based
[13] = test system: Bel7402/5-FU; test: Induction of apoptosis in human Bel7402/5-FU cells at 2 uM after 24 hrs by Hoechst 33342 staining based fluorescent microscopic method; format: functional, cell-based
[14] = test system: Bel7402/5-FU; test: Effect on COX1 expression in human Bel7402/5-FU cells assessed as ratio of COX1 to beta-actin level at 2 uM after 48 hrs by Western blot analysis (reference value: 0.48); format: functional
[15] = test system: Bel7402/5-FU; test: Effect on cyclinB1 expression in human Bel7402/5-FU cells assessed as ratio of cyclinB1 to beta-actin level at 2 uM after 48 hrs by Western blot analysis (reference value: 0.53); format: functional
[16] = test system: Bel7402/5-FU; test: Effect on MRP1 expression in human Bel7402/5-FU cells assessed as ratio of MRP1 to beta-actin level at 2 uM after 48 hrs by Western blot analysis (reference value: 0.58); format: functional
[17] = test system: Bel7402/5-FU; test: Induction of apoptosis in human Bel7402/5-FU cells assessed as necrotic cells at 2 uM after 48 hrs by Annexin V-APC/7-AAD staining based flow cytometry (reference value: 0.58%); format: functional
[18] = test system: Bel7402/5-FU; test: Effect on VEGFR2 expression in human Bel7402/5-FU cells assessed as ratio of VEGFR2 to beta-actin level at 2 uM after 48 hrs by Western blot analysis (reference value: 0.25); format: functional
[19] = test system: Bel7402/5-FU; test: Induction of apoptosis in human Bel7402/5-FU cells assessed as ratio of cleaved PARP to beta-actin level at 2 uM after 48 hrs by Western blot analysis (reference value: 0.2); format: functional
[20] = test system: Bel7402/5-FU; test: Effect on iNOS expression in human Bel7402/5-FU cells assessed as ratio of iNOS to beta-actin level at 2 uM after 48 hrs by Western blot analysis (reference value: 0.13); format: functional
[21] = biological target: RAC-alpha serine/threonine-protein kinase (Homo sapiens) (UniProt P31749); test: Effect on AKT phosphorylation in human Bel7402/5-FU cells assessed as ratio of phosphorylated AKT to beta-actin level at 2 uM after 48 hrs by Western blot analysis (reference value: 0.39); format: cell-based
[22] = test system: Bel7402/5-FU; test: Effect on cyclinA expression in human Bel7402/5-FU cells assessed as ratio of cyclinA to beta-actin level at 2 uM after 48 hrs by Western blot analysis (reference value: 0.39); format: functional
[23] = test system: Bel7402/5-FU; test: Induction of apoptosis in human Bel7402/5-FU cells assessed as ratio of cleaved caspase-3 to beta-actin level at 2 uM after 48 hrs by Western blot analysis (reference value: 0.19); format: functional
[24] = test system: Bel7402/5-FU; test: Induction of apoptosis in human Bel7402/5-FU cells assessed as ratio of cleaved caspase-9 to beta-actin level at 2 uM after 48 hrs by Western blot analysis (reference value: 0.17); format: functional
[25] = test system: Bel7402/5-FU; test: Cell cycle arrest in human Bel7402/5-FU cells assessed as accumulation at S phase at 2 uM after 48 hrs by propidium iodide staining based flow cytometry (reference value: 12.62%); format: functional
[26] = test system: Bel7402/5-FU; test: Induction of apoptosis in human Bel7402/5-FU cells assessed as reduction in cell number at 2 uM after 24 hrs by Hoechst 33342 staining based fluorescent microscopic method; format: functional
[27] = test system: Bel7402/5-FU; test: Effect on CDK1 expression in human Bel7402/5-FU cells assessed as ratio of CDK1 to beta-actin level at 2 uM after 48 hrs by Western blot analysis (reference value: 0.33); format: functional
[28] = test system: Bel7402/5-FU; test: Effect on COX2 expression in human Bel7402/5-FU cells assessed as ratio of COX2 to beta-actin level at 2 uM after 48 hrs by Western blot analysis (reference value: 0.36); format: functional
[29] = biological target: Mitogen-activated protein kinase; ERK1/ERK2 (Homo sapiens) (UniProt P27361+P28482); test: Effect on ERK1/2 phosphorylation in human Bel7402/5-FU cells assessed as ratio of phosphorylated ERK1/2 to beta-actin level at 2 uM after 48 hrs by Western blot analysis (reference value: 0.59); format: cell-based
[30] = test system: Bel7402/5-FU; test: Effect on E-cadherin expression in human Bel7402/5-FU cells assessed as ratio of E-cadherin to beta-actin level at 2 uM after 48 hrs by Western blot analysis (reference value: 0.2); format: functional
[31] = test system: Bel7402/5-FU; test: Cell cycle arrest in human Bel7402/5-FU cells assessed as accumulation at G2 phase at 2 uM after 48 hrs by propidium iodide staining based flow cytometry (reference value: 35.16%); format: functional
[32] = test system: Bel7402/5-FU; test: Induction of apoptosis in human Bel7402/5-FU cells assessed as morphological changes at 2 uM after 24 hrs by Hoechst 33342 staining based fluorescent microscopic method; format: functional, cell-based
[33] = test system: Bel7402/5-FU; test: Reduction in microtubule density in human Bel7402/5-FU cells at 2 uM after 24 to 48 hrs by DAPI staining based immunofluorescence microscopic method; format: functional, cell-based
[34] = test system: Bel7402/5-FU; test: Effect on CDK2 expression in human Bel7402/5-FU cells assessed as ratio of CDK2 to beta-actin level at 2 uM after 48 hrs by Western blot analysis (reference value: 0.43); format: functional
[35] = test system: Bel7402/5-FU; test: Effect on P-gp expression in human Bel7402/5-FU cells assessed as ratio of P-gp to beta-actin level at 2 uM after 48 hrs by Western blot analysis (reference value: 0.59); format: functional
[36] = test system: Bel7402/5-FU; test: Induction of apoptosis in human Bel7402/5-FU cells assessed as condensed nuclei at 2 uM after 24 hrs by Hoechst 33342 staining based fluorescent microscopic method; format: functional, cell-based
[37] = test system: Bel7402/5-FU; test: Effect on MMP2 expression in human Bel7402/5-FU cells assessed as ratio of MMP2 to beta-actin level at 2 uM after 48 hrs by Western blot analysis (reference value: 0.3); format: functional

Chain of Mitogen-activated protein kinase; ERK1/ERK2 (Homo sapiens) (P27361 whole entry, looked up): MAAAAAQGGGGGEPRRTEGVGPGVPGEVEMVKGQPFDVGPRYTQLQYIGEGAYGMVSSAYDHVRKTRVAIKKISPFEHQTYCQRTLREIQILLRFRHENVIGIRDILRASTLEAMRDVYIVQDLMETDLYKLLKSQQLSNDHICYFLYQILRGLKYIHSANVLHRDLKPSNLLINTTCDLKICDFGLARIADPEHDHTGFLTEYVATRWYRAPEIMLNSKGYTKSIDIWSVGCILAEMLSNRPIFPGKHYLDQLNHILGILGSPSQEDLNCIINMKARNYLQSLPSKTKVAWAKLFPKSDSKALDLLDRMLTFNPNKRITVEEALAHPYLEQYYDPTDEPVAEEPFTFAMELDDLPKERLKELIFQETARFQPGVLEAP
Chain of Mitogen-activated protein kinase; ERK1/ERK2 (Homo sapiens) (P28482 whole entry, looked up): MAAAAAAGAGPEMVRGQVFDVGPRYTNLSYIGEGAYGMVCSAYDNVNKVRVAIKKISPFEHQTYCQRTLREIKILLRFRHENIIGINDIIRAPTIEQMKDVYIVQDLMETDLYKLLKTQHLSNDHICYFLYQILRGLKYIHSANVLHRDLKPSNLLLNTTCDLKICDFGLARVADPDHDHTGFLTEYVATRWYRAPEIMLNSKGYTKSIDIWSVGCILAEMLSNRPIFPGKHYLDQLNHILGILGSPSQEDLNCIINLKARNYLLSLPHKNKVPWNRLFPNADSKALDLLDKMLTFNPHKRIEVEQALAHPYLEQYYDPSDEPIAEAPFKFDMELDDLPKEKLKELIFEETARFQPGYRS
Chain of RAC-alpha serine/threonine-protein kinase (Homo sapiens) (P31749 whole entry): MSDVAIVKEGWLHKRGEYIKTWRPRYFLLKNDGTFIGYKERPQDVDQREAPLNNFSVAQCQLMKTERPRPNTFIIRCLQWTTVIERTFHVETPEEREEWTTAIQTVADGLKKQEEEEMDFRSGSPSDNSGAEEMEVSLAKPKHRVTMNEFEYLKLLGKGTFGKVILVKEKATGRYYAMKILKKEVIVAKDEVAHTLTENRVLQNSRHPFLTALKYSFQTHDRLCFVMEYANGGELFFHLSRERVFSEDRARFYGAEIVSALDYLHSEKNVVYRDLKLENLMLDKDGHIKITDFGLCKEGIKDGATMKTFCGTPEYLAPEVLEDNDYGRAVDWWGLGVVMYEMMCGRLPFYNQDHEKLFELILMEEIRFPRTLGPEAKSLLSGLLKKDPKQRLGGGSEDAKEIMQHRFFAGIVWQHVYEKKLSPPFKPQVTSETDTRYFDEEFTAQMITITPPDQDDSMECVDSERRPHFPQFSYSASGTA
Chain of Signal transducer and activator of transcription 3 (Homo sapiens) (P40763 whole entry): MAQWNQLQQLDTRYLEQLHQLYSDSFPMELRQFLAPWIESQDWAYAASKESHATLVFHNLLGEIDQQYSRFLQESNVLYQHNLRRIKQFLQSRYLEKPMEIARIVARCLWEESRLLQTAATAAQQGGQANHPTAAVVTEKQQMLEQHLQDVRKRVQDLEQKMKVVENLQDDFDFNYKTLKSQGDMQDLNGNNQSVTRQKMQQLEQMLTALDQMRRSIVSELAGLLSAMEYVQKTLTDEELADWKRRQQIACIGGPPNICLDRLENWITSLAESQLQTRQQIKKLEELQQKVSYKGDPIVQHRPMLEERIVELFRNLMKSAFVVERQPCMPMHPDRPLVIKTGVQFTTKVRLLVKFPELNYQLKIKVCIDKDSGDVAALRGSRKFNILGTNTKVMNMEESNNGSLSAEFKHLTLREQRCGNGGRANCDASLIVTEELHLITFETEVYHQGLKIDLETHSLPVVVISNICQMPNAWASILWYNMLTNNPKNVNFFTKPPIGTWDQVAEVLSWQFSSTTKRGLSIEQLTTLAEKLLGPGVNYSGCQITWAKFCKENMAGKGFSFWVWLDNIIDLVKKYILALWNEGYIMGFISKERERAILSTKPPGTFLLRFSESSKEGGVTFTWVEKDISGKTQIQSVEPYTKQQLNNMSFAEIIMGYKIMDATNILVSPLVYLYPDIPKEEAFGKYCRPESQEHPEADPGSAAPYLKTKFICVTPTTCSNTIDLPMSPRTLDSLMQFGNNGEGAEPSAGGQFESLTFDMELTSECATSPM

COc1ccc2c(c1)c(CC(=O)O[C@H]1c3cc4c(cc3[C@@H](c3cc(OC)c(OC)c(OC)c3)[C@H]3C(=O)OC[C@@H]31)OCO4)c(C)n2C(=O)c1ccc(Cl)cc1
Activity [1]: 20.65% | Activity [2]: 66.98% | Ratio IC50 [3]: 0.36 | Activity [4]: 5.19% | Activity [5]: 27.1% | Ratio [6]: 0.33 | Ratio [7]: 0.37 | IC50 [8]: 1860 nM | Activity [9]: Active | IC50 [10]: 2160 nM | IC50 [11]: 5900 nM | Activity [12]: Active | Activity [13]: Active | Ratio [14]: 0.42 | Ratio [15]: 0.51 | Ratio [16]: 0.39 | Activity [17]: 7.18% | Ratio [18]: 0.17 | Ratio [19]: 0.35 | Ratio [20]: 0.12 | Ratio [21]: 0.4 | Ratio [22]: 0.26 | Ratio [23]: 0.45 | Ratio [24]: 0.33 | Activity [25]: 21.81% | Activity [26]: Active | Ratio [27]: 0.3 | Ratio [28]: 0.36 | Ratio [29]: 0.54 | Ratio [30]: 0.2 | Activity [31]: 51.09% | Activity [32]: Active | Activity [33]: Active | Ratio [34]: 0.37 | Ratio [35]: 0.63 | Activity [36]: Active | Ratio [37]: 0.28

From ChEMBL document CHEMBL4038272, “Synthesis and biological evaluation of novel podophyllotoxin-NSAIDs conjugates as multifunctional anti-MDR agents against resistant human hepatocellular carcinoma Bel-7402/5-FU cells” (Eur J Med Chem, 2017)
